# From patent US20110250136A1, “FLUORINATED BENZOTHIAZOLE DERIVATIVES, PREPARATION METHOD THEREOF AND IMAGING AGENT FOR DIAGNOSING ALTZHEIMER'S DISEASE USING THE SAME” (SNU R&DB FOUNDATION, priority 2008, published 2011)
# Values joined by “and” are separate entries in the source; they are usually repeats but may differ in a detail not shown here. Equal values may be shown once.
# Key:
# [1] = Measurement of partition coefficient (1-octanol / PBS buffer, gamma counter); assay type: physicochemical; details: 1-octanol / 1 M PBS buffer, room temperature; read-out: Log P value
# Method: For this purpose, the distribution ratio of octanol to water buffer of the compound to be measured may be measured to determine the relative lipophilicity of each compound. […] The mixture was vortexed at room temperature for 5 minutes and then was centrifuged at 1000 rpm for 5 minutes. 4 ml was withdrawn from the octanol layer of the solution, introduced into a new tube, and another 4 ml of 1 M PBS buffer was introduced into the tube. The mixture was vortexed at room temperature for 5 minutes and then centrifuged at 1000 rpm for 5 minutes. 50 μl was withdrawn from the octanol layer and introduced into a test tube, and 500 μl was withdrawn from the 1 M PBS buffer and introduced into the test tube. 3 ml was withdrawn from the octanol layer and introduced into another test tube, and another 3 ml of 1 M PBS buffer was added into the test tube. The mixture was vortexed at room temperature for 5 minutes and then centrifuged at 1000 rpm for 5 minutes. 50 μl was withdrawn from the octanol layer and introduced into a test tube, and 500 μl was withdrawn from the 1 M PBS buffer and introduced into the test tube. 2 ml was withdrawn from the octanol layer and introduced into another test tube, and another 2 ml of the PBS buffer. The mixture was vortexed at room temperature for 5 minutes and then centrifuged at 1000 rpm for 5 minutes. […]
# [2] = Brain imaging (PET) of normal volunteer, brain region to cerebellar ratio; assay type: in vivo, human; details: 196 MBq i.v.; for brain region to cerebellar ratio, Cinerea / brain region to cerebellar ratio, Frontal cortex / brain region to cerebellar ratio, Occipital cortex / brain region to cerebellar ratio, posterior cingulate cortex: PET; for brain region to cerebellar ratio, Cerebell: PET (reference region)
# Method: Each of the compounds (196 MBq) in Examples 2 and 3 of the present invention was dissolved in 6 ml of physiological saline solution including 5% ethanol, the resulting solution was intravenously injected into a normal volunteer (78 kg), and Static Images of the brain from the injection to 2 hours were obtained through a Phillips Allegro PET scanner. The protocol of the brain imaging repeated emission and transmission as follows.
# [2 minute emission+transmission]×four times
# [5 minute emission+transmission]×four times
# [10 minute emission+transmission]×three times
# For attenuation correction, a Cs-137 radiation source prior to the administration was used to obtain a one-and-a half minute transmission scan per bed (18 cm). The transmission image and a 3D Row-Action Maximum-Likelihood (RAMLA) algorithm were used to reconstruct an attenuation corrected image. The 3D voxel size was 2.0×2.0×2.0 mm and the matrix size was 128×128×90 (FIGS. 2 and 3).
# [3] = In vivo cerebral uptake and release degree in a normal mouse; set-up: species or system ICR mice; details: for % ID-kg/g: corrected for body weight; for % ID/g: tail vein injection, normal mouse; for release from normal mouse brain (in words): up to 60 min
# Method: 6 week-old ICR mice were used for experiments on cerebral uptake and release degree of three 6-[18F]fluorine-2-allylbenzothiazole derivatives (compounds in Examples 1 to 3) in a mouse over time. Each of the compounds in Examples 1 to 3 was dissolved in physiological saline solution containing 5% ethanol, and each of 200 μl (100 μCi) of the solutions was injected through the tail vein of the mouse. 2, 30, and 60 minutes were selected as in-vivo retention time periods, and 4 to 7 mice were used in each time period. After the mice were sacrificed by cervical dislocation in each time period, the brains were quickly removed, they were separated into three parts of cortex, cerebellum, and remnant on filter paper kept on ice, respectively, and blood was collected. The specimen thus-obtained was introduced into a glass tube, the weight was determined, and the radioactivity were measured using a gamma counter. Using the data obtained, the percent injected dose per gram of tissue (% ID/g) in each sample compared to radioactivity actually injected, and the value (% ID-kg/g) corrected for individual body weights of the mice used were calculated.
# Aβ1-42 fibrils [4] = target: T1, Aβ1-42 fibrils (Homo sapiens, UniProt P05067); test: Binding affinity to beta-amyloid fibrils, competition with [125I]TZDM; details: [125I]TZDM radioligand
# T1 construct: beta-amyloid plaque peptides (Aβ1-40 and Aβ1-42)
# Method: (§1) A fibril solution, in which 1 mg of each of beta-amyloid plaque peptides (Aβ1-40 and Aβ1-42) to be used for analysis was dissolved in 1.155 ml of ethylenediaminetetraacetic acid disodium salt (Na2EDTA) solution, was introduced into 20 mM PBS buffer (pH 7.4), a sonication was performed for 30 minutes, and then the mixture was incubated with stirring for 3 days at 30° C. The thus-obtained solution was high speed centrifuged (28,000 g for 15 minutes) at 4° C., and the supernatant was collected. The precipitate was washed twice with 100 μl of a mixture solution of 1 mM ethylenediaminetetraacetic acid disodium salt and 10 mM PBS buffer. The precipitate was resuspended in 2.310 ml of 1 mM ethylenediaminetetraacetic acid disodium salt and 10 mM PBS buffer, and the suspended sold produced was divided into equal aliquots of 30 μl and kept at −80° C. […] A mixed solution with a total volume of 1000 μl was incubated at room temperature for 3 hours, and then a Whatman GF/B filter was used to separate the solution into unbound radioactive materials and bound radioactive materials. Then, each tube was washed three times with 3 μl of 10% ethanol. The radioactivity was measured using an automatic gamma counter.
# Aβ1-40 fibrils [5] = target: T2, Aβ1-40 fibrils (Homo sapiens, UniProt P05067); test: as above; details: [125I]TZDM radioligand
# T2 construct: beta-amyloid plaque peptides (Aβ1-40 and Aβ1-42)
# Method: as §1
# Aβ1-42 fibrils [6] = target: T1, Aβ1-42 fibrils; details: radioactive ligand, known value, printed as second Aβ1-40; read-out: Kd for Aβ1-40 (second named); cited from earlier work
# Aβ1-40 fibrils [7] = target: T2, Aβ1-40 fibrils; details: radioactive ligand, known value, first Aβ1-40; cited from earlier work
# T1 sequence (P05067 672-713 limits assumed): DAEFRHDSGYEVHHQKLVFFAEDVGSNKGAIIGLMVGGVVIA
# T2 sequence (P05067 672-711 limits assumed): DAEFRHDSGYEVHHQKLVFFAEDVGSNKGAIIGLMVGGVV
compound,measurement,setting,value
"CN(C)c1ccc(-c2nc3ccc([18F])cc3s2)cc1 [Example 3, 2-(4′-N-Dimethylaminophenyl)-6-[^18F]fluorobenzothiazole]",logP,[1],4.33
same,"brain region to cerebellar ratio, Cinerea",[2]; 15 min,0.40
same,"brain region to cerebellar ratio, Frontal cortex",[2]; 15 min,0.88
same,"brain region to cerebellar ratio, Occipital cortex",[2]; 15 min,1.17
same,"brain region to cerebellar ratio, posterior cingulate cortex",[2]; 15 min,0.91
same,"brain region to cerebellar ratio, Cerebell",[2]; 15 min,1.00
same,"brain region to cerebellar ratio, Cinerea",[2]; 90 min,0.83
same,"brain region to cerebellar ratio, Frontal cortex",[2]; 90 min,1.02
same,"brain region to cerebellar ratio, Occipital cortex",[2]; 90 min,1.12
same,"brain region to cerebellar ratio, posterior cingulate cortex",[2]; 90 min,1.00
same,"brain region to cerebellar ratio, Cerebell",[2]; 90 min,1.00
same,% ID-kg/g,"[3]; Blood, 2 min",0.040 ± 0.003 % ID-kg/g
same,% ID/g,"[3]; Blood, 2 min",1.55 ± 0.08 % ID/g
same,% ID-kg/g,"[3]; Blood, 30 min",0.026 ± 0.005 % ID-kg/g
same,% ID/g,"[3]; Blood, 30 min",1.04 ± 0.19 % ID/g
same,% ID-kg/g,"[3]; Blood, 60 min",0.021 ± 0.010 % ID-kg/g
same,% ID/g,"[3]; Blood, 60 min",1.02 ± 0.06 % ID/g
same,% ID-kg/g,"[3]; Cerebellum, 2 min",0.115 ± 0.005 % ID-kg/g
same,% ID/g,"[3]; Cerebellum, 2 min",4.45 ± 0.19 % ID/g
same,% ID-kg/g,"[3]; Cerebellum, 30 min",0.050 ± 0.007 % ID-kg/g
same,% ID/g,"[3]; Cerebellum, 30 min",2.03 ± 0.26 % ID/g
same,% ID-kg/g,"[3]; Cerebellum, 60 min",0.024 ± 0.012 % ID-kg/g
same,% ID/g,"[3]; Cerebellum, 60 min",1.16 ± 0.09 % ID/g
same,% ID-kg/g,"[3]; Cortex, 2 min",0.114 ± 0.004 % ID-kg/g
same,% ID/g,"[3]; Cortex, 2 min",4.39 ± 0.22 % ID/g
same,% ID-kg/g,"[3]; Cortex, 30 min",0.054 ± 0.006 % ID-kg/g
same,% ID/g,"[3]; Cortex, 30 min",2.17 ± 0.26 % ID/g
same,% ID-kg/g,"[3]; Cortex, 60 min",0.033 ± 0.017 % ID-kg/g
same,% ID/g,"[3]; Cortex, 60 min",1.61 ± 0.22 % ID/g
same,% ID-kg/g,"[3]; Remnant (brain), 2 min",0.110 ± 0.006 % ID-kg/g
same,% ID/g,"[3]; Remnant (brain), 2 min",4.26 ± 0.22 % ID/g
same,% ID-kg/g,"[3]; Remnant (brain), 30 min",0.069 ± 0.010 % ID-kg/g
same,% ID/g,"[3]; Remnant (brain), 30 min",2.80 ± 0.39 % ID/g
same,% ID-kg/g,"[3]; Remnant (brain), 60 min",0.041 ± 0.020 % ID-kg/g
same,% ID/g,"[3]; Remnant (brain), 60 min",2.01 ± 0.15 % ID/g
same,initial cerebral uptake (in words),"[3]; normal mouse brain, 2 min",relatively lower initial cerebral uptake
same,release from normal mouse brain (in words),[3]; normal mouse brain,slower 60-minute removal rate
"CNc1ccc(-c2nc3ccc([18F])cc3s2)cc1 [Example 2, 2-(4′-N-Methylaminophenyl)-6-[^18F]fluorobenzothiazole]",logP,[1],3.11
same,"brain region to cerebellar ratio, Cinerea",[2]; 15 min,0.45
same,"brain region to cerebellar ratio, Frontal cortex",[2]; 15 min,0.92
same,"brain region to cerebellar ratio, Occipital cortex",[2]; 15 min,1.05
same,"brain region to cerebellar ratio, posterior cingulate cortex",[2]; 15 min,0.89
same,"brain region to cerebellar ratio, Cerebell",[2]; 15 min,1.00
same,"brain region to cerebellar ratio, Cinerea",[2]; 90 min,0.83
same,"brain region to cerebellar ratio, Frontal cortex",[2]; 90 min,0.96
same,"brain region to cerebellar ratio, Occipital cortex",[2]; 90 min,0.95
same,"brain region to cerebellar ratio, posterior cingulate cortex",[2]; 90 min,0.87
same,"brain region to cerebellar ratio, Cerebell",[2]; 90 min,1.00
same,% ID-kg/g,"[3]; Blood, 2 min",0.070 ± 0.007 % ID-kg/g
same,% ID/g,"[3]; Blood, 2 min",2.08 ± 0.19 % ID/g
same,% ID-kg/g,"[3]; Blood, 30 min",0.032 ± 0.007 % ID-kg/g
same,% ID/g,"[3]; Blood, 30 min",0.92 ± 0.15 % ID/g
same,% ID-kg/g,"[3]; Blood, 60 min",0.042 ± 0.006 % ID-kg/g
same,% ID/g,"[3]; Blood, 60 min",1.28 ± 0.08 % ID/g
same,% ID-kg/g,"[3]; Cerebellum, 2 min",0.210 ± 0.017 % ID-kg/g
same,% ID/g,"[3]; Cerebellum, 2 min",6.24 ± 0.35 % ID/g
same,% ID-kg/g,"[3]; Cerebellum, 30 min",0.048 ± 0.011 % ID-kg/g
same,% ID/g,"[3]; Cerebellum, 30 min",1.38 ± 0.23 % ID/g
same,% ID-kg/g,"[3]; Cerebellum, 60 min",0.032 ± 0.003 % ID-kg/g
same,% ID/g,"[3]; Cerebellum, 60 min",0.98 ± 0.12 % ID/g
same,% ID-kg/g,"[3]; Cortex, 2 min",0.222 ± 0.015 % ID-kg/g
same,% ID/g,"[3]; Cortex, 2 min",6.62±0.33 % ID/g
same,% ID-kg/g,"[3]; Cortex, 30 min",0.042 ± 0.010 % ID-kg/g
same,% ID/g,"[3]; Cortex, 30 min",1.20 ± 0.20 % ID/g
same,% ID-kg/g,"[3]; Cortex, 60 min",0.024 ± 0.002 % ID-kg/g
same,% ID/g,"[3]; Cortex, 60 min",0.73±0.09 % ID/g and 0.73 ± 0.10 % ID/g
same,% ID-kg/g,"[3]; Remnant (brain), 2 min",0.212 ± 0.017 % ID-kg/g
same,% ID/g,"[3]; Remnant (brain), 2 min",6.30 ± 0.46 % ID/g
same,% ID-kg/g,"[3]; Remnant (brain), 30 min",0.066 ± 0.014 % ID-kg/g
same,% ID/g,"[3]; Remnant (brain), 30 min",1.91 ± 0.30 % ID/g
same,% ID-kg/g,"[3]; Remnant (brain), 60 min",0.044 ± 0.003 % ID-kg/g
same,% ID/g,"[3]; Remnant (brain), 60 min",1.32 ± 0.15 % ID/g
same,release from normal mouse brain (in words),[3]; normal mouse brain,very quickly released
"CNc1ccc(-c2nc3ccc(F)cc3s2)cc1 [Example 5, 2-(4′-N-methylaminophenyl)-6-fluorobenzothiazole]",melting point,,153.5 to 154.5 °C
same,Ki,Aβ1-42 fibrils [4],7.55 nM
same,Ki,Aβ1-40 fibrils [5],13.3 nM
"CN(C)c1ccc(-c2nc3ccc(F)cc3s2)cc1 [Example 6, 2-(4′-Dimethylaminophenyl)-6-fluorobenzothiazole]",melting point,,204.4 to 205.9 °C
same,Ki,Aβ1-42 fibrils [4],1.86 nM
same,Ki,Aβ1-40 fibrils [5],7.9 nM
CNc1ccc(-c2nc3ccccc3s2)cc1I [2-(3-[125I]iodo-4′-N-methylaminophenyl)benzothiazole],Kd,Aβ1-42 fibrils [6],0.44 ± 0.25 nM
same,Kd,Aβ1-40 fibrils [7],2.3 ± 0.33 nM
